Experimental data: US20110027348A1, “COMPOSITION AND METHOD INHIBITING INFLAMMATION” (priority 2007, published 2011)

Columns and labels:
[1] = tested on: neurogenic inflammation evoked by capsaicin; assay: Capsaicin-evoked neurogenic inflammation in newborn rats (Example I/2); format: in vivo, Sprague Dawley rats
Experimental: Neurogenic inflammation was evoked in newborn ([…]) Sprague Dawley rats by intraperitoneal administration of capsaicin (50 mg/kg of body mass) as described in the literature (Acta Physiol. Hung. 1987; 69(3-4):323-32). Twenty-four hours before capsaicin injection 10 ml intravenous infusions each of CoQ10, or omega 3+vitamin E, or omega 3+vitamin E+CoQ10 were applied. Each of these combinations contained 1.0 g omega 3, 10 mg vitamin E and 10 mg CoQ10. […] Hypotensive shock and subsequent death were prevented by pre-treatment with omega 3+vitamin E in 26% and in the omega 3+vitamin E+CoQ10 in 64%, while in the control group only 22% survived. […] Six weeks after the capsaicin injection, corneal transparency and sensitivity returned to normal in the pre-treated groups, while in the control group reduced transparency and sensitivity were observed.

[2] = tested on: TNF-alpha; assay: LPS-evoked immunogenic inflammation, TNF-alpha levels in monocyte/macrophage culture (Example I/1); format: cell-based; conditions: RAW 264,7 culture, control 0%
Experimental: The purpose of this experimental model was to measure inhibitory influence of omega 3 fatty acids, vitamin E and CoQ10 separately and in combination, using methods disclosed in literature (J. Surg Res. 2002 September; 107(1):135-139). For evoking inflammation bacterial endotoxin (LPS) was used and changes in levels of a proinflammatory cytokin, TNF-alpha were measured in a monocyte/macrophage (RAW 264,7) culture. It is clear that both combinations show inhibition of inflammation, the 3 member combination a considerably higher one.

[3] = tested on: retinal pigment epithelial (RPE) cells; assay: Retinal cell culture, growth and differentiation of RPE cells (Example I/6); format: cell-based, Wistar rats; conditions: 7 day stage, morphometric analysis, control 0%
Experimental: The aim of this study was to reveal the influence of omega 3 fatty acids, Vitamin E, CoQ10 and LB separately or in combination on the development and differentiation of retinal cells in culture (in vitro). Retinas of newborn (1-2 days) Wistar rats were isolated. and cultured as described in our previous paper (Int. J. Dev. Neurosc. 1998 August; 16(5):423-32). In six different combinations, the culture medium contained 10 g omega 3 fatty acids, 100 mg vitamin E, 100 mg CoQ10 and 0.05 microgram LB per 100 ml. At the 7 day stage size and differentiation of retinal pigment epithelial (RPE) cells were determined by morphometric analysis, as described in the cited work.

| SMILES | Neurogenic inflammation, acute features (survival; hypotensive shock and subsequent death prevented) ([1]; 10 ml i.v. infusion 24 hours before capsaicin 50 mg/kg i.p., control 22%) [%] | Neurogenic inflammation, chronic features ([1]; 10 ml i.v. infusion 24 hours before capsaicin, six weeks after capsaicin, control 20%) [%] | Decrease in proinflammatory cytokine levels in immunogenic inflammation: TNF-alpha [2] [%] | RPE differentiation [3] [%] | RPE growth [3] [%] |
| --- | --- | --- | --- | --- | --- |
| COC1=C(OC)C(=O)C(C/C=C(\C)CC/C=C(\C)CC/C=C(\C)CC/C=C(\C)CC/C=C(\C)CC/C=C(\C)CC/C=C(\C)CC/C=C(\C)CC/C=C(\C)CCC=C(C)C)=C(C)C1=O [CoQ10, ubiquinone 10] | 22 | 25 | −3 | 3 | 1 |
| CC(=O)Oc1ccccc1C(=O)O [aspirin] |  |  | −21 |  |  |
